Results taken from patent US11242327B2, “Analgesic compounds” (RECURIUM IP HOLDINGS, LLC, priority 2017, dated 2022).

Legend:
Assay type in all cases: in vivo
[1] = system: male Sprague-Dawley rats; test: Osteoarthritis Pain Test (MIA, mechanical hyperalgesia); details: rat, oral once daily, 30 mg/kg
Description: Osteoarthritis pain was induced in non-fasted male Sprague-Dawley rats weighing 150-250 g by injecting 2 mg of monosodium iodoacetate (MIA) into the left knee joint. Mechanical hyperalgesia was measured using a digital Randall-Selitto device (dRS; IITC Life Sciences©; Woodland Hills, Calif.). Animals were allowed to acclimate to the testing room for a minimum of 15 minutes before testing. Animals were placed in a restraint sling that suspended the animal, leaving the hind limbs available for testing. The stimulus was applied to the knee joint by a blunt tip and pressure was applied gradually over approximately 10 seconds. Joint compression threshold values were recorded at the first observed nocifensive behavior (vocalization, struggle, or withdrawal). One reading per joint was taken at each time point, and a maximum stimulus cutoff of 500 grams was used to prevent injury to the animal. Mechanical hyperalgesia was assessed prior to MIA injection, and again 14 days later. After 14 days, test or control articles were administered once daily for 7 days with mechanical hyperalgesia assessed prior to dosing, 1, 2, and 4 hours post-dosing on days 0, 3, and 6. Test compounds were administered orally at concentrations of 3, 10, 30 or 100 mg/kg and celecoxib was administered orally at a concentration of 30 mg/kg. The control group received the vehicle (sterile water). After day 0, groups receiving the 100 mg/kg dose were reduced to a dose of 3 mg/kg. In Table 5, ‘A’ designates ≥375 grams of joint compression, ‘B’ designates ≥325 and <375 grams of joint compression, and ‘C’ designates <325 grams of joint compression.
The results provided in Table 5 are for oral administration in rats.

[2] = system: male Sprague-Dawley rats; test: UVB Inflammatory Pain Test (thermal hyperalgesia); details: rat, oral, 30 mg/kg
Description: UVB irradiation to the surface of the hind paw was used to induce cutaneous inflammatory pain in non-fasted male Sprague-Dawley rats weighing 175-300 g. On Day −3, animals were restrained and the plantar surface of the left hind paw was exposed to 350 mJoules/cm^2 of UVB irradiation using a narrow band UVB light source (Daavlin®, Bryan, Ohio). Following UVB irradiation, animals were returned to their home cage. Thermal hyperalgesia was assessed prior to dosing and approximately 1, 2, and 4 hours after dosing on Day 0 using a radiant heat plantar test apparatus (IITC Life Sciences©; Woodland Hills, Calif.). Animals were placed in individual acrylic chambers on a glass platform warmed to 30±2° C. and allowed to acclimate to their surroundings for a minimum of 15 minutes before testing. The stimulus was presented to the plantar surface and the timer was activated. The stimulus intensity was set such that pre-injury paw withdrawal latencies were approximately 12-18 seconds. Paw withdrawal latency values were recorded at the first observed nocifensive behavior (paw withdrawal, flinching, biting and/or licking). Three paw withdrawal latencies were measured for each hind paw per time point. The mean of the 3 values was taken as the paw withdrawal latency for that time point. A maximum cutoff latency of 30 seconds was used to prevent injury to the animal. The mean and standard error of the mean (SEM) were determined for each paw for each treatment group at each time point. Test compounds were administered orally at concentrations of 3, 10, 30 or 100 mg/kg; celecoxib was administered orally at a concentration of 30 mg/kg; and acetaminophen was administered orally at a concentration of 300 mg/kg. The control group received the vehicle (sterile water). In Table 4, ‘A’ designates >8 seconds of paw withdrawal latency, ‘B’ designates >6 and <8 seconds of paw withdrawal latency, and ‘C’ designates <6 seconds of paw withdrawal latency.
The results provided in Table 4 are for oral administration in rats. […] Furthermore, while acetaminophen was dosed at 300 mg/kg, compounds of Formulae (Ie), (Ih) and (Ik), or a pharmaceutically acceptable salt of any of the foregoing, were dosed at 3 mg/kg, 10 mg/kg and 100 mg/kg.

[3] = system: male Sprague-Dawley rats; test: Formalin Paw Test, rat, oral; details: 30 mg/kg; for Early Phase, seconds of paw licking: early/acute phase (0-10 minutes); for Late Phase, seconds of paw licking: late/tonic phase (10-35 minutes)
Description: One test compound or the vehicle was administered to each rat or mouse in each test group (8 rats or mice per group). Non-fasted male Sprague-Dawley rats weighing 200-225 g or non-fasted male ICR mice weighing 23±3 g were used. […] Responses were measured every 5 minutes after the formalin injection for 35 minutes. The results in Table 2 are for oral administration in rat and the results in Table 3 are for intraperitoneal administration in mouse. In Tables 2 and 3, 'A' designates <70 seconds of paw licking, 'B' designates >70 and <165 seconds of paw licking, and 'C' designates >165 seconds of paw licking.

## Cc1ccc(-c2cc(C(F)(F)F)nn2-c2ccc(S(N)(=O)=O)cc2)cc1 [Celecoxib, reference compound]
[1]; Day 0, 1 h post-dosing
  joint compression threshold, Day 0, 1 h: B (≥325 and <375 grams of joint compression)
[1]; Day 0, 2 h post-dosing
  joint compression threshold, Day 0, 2 h: A (≥375 grams of joint compression)
[1]; Day 0, 4 h post-dosing
  joint compression threshold, Day 0, 4 h: B (≥325 and <375 grams of joint compression)
[1]; Day 3, 1 h post-dosing
  joint compression threshold, Day 3, 1 h: C (<325 grams of joint compression)
[1]; Day 3, 2 h post-dosing
  joint compression threshold, Day 3, 2 h: A (≥375 grams of joint compression)
[1]; Day 3, 4 h post-dosing
  joint compression threshold, Day 3, 4 h: A (≥375 grams of joint compression)
[1]; Day 6, 1 h post-dosing
  joint compression threshold, Day 6, 1 h: B (≥325 and <375 grams of joint compression)
[1]; Day 6, 2 h post-dosing
  joint compression threshold, Day 6, 2 h: A (≥375 grams of joint compression)
[1]; Day 6, 4 h post-dosing
  joint compression threshold, Day 6, 4 h: A (≥375 grams of joint compression)
[2]; 1 h after dosing
  paw withdrawal latency, 1 h: A (>8 seconds of paw withdrawal latency)
[2]; 2 h after dosing
  paw withdrawal latency, 2 h: A (>8 seconds of paw withdrawal latency)
[2]; 4 h after dosing
  paw withdrawal latency, 4 h: A (>8 seconds of paw withdrawal latency)

## Cl.NC12CC(c3ccc(C(F)(F)F)cc3)(C1)C2 [Compound 3, 3-(4-(trifluoromethyl)phenyl)bicyclo[1.1.1]pentan-1-amine hydrochloride]
[3]
  Early Phase, seconds of paw licking: A (<70 seconds of paw licking)
  Late Phase, seconds of paw licking: A (<70 seconds of paw licking)

## COc1ccc(C23CC(N)(C2)C3)cc1.Cl [Compound 4, 3-(4-Methoxyphenyl)bicyclo[1.1.1]pentan-1-amine hydrochloride]
[3]
  Early Phase, seconds of paw licking: A (<70 seconds of paw licking)
  Late Phase, seconds of paw licking: A (<70 seconds of paw licking)

## Cl.NC12CC(c3cccc(C(F)(F)F)c3)(C1)C2 [Compound 5]
[3]
  Early Phase, seconds of paw licking: A (<70 seconds of paw licking)
  Late Phase, seconds of paw licking: B (>70 and <165 seconds of paw licking)

## CCNC12CC(C(F)(F)F)(C1)C2.Cl [Compound 8, N-Ethyl-3-(trifluoromethyl)bicyclo[1.1.1]pentan-1-amine hydrochloride]
[3]
  Early Phase, seconds of paw licking: A (<70 seconds of paw licking)
  Late Phase, seconds of paw licking: C (>165 seconds of paw licking)

## Cl.OCCNC12CC(C(F)(F)F)(C1)C2 [Compound 9, 2-((3-(Trifluoromethyl)bicyclo[1.1.1]pentan-1-yl)amino)ethan-1-ol hydrochloride]
[3]
  Early Phase, seconds of paw licking: A (<70 seconds of paw licking)
  Late Phase, seconds of paw licking: C (>165 seconds of paw licking)

## Cl.NC12CC(c3ccc(Cl)cc3)(C1)C2 [Compound 10, 3-(4-Chlorophenyl)bicyclo[1.1.1]pentan-1-amine hydrochloride]
[3]
  Early Phase, seconds of paw licking: A (<70 seconds of paw licking)
  Late Phase, seconds of paw licking: A (<70 seconds of paw licking)

## Cl.NC12CC(c3ccnc(C(F)(F)F)n3)(C1)C2 [Compound 11, 3-(2-(Trifluoromethyl)pyrimidin-4-yl)bicyclo[1.1.1]pentan-1-amine hydrochloride]
[3]
  Early Phase, seconds of paw licking: A (<70 seconds of paw licking)
  Late Phase, seconds of paw licking: C (>165 seconds of paw licking)

## Cl.NC12CC(c3nccc(C(F)(F)F)n3)(C1)C2 [Compound 12, 3-(4-(Trifluoromethyl)pyrimidin-2-yl)bicyclo[1.1.1]pentan-1-amine hydrochloride]
[3]
  Early Phase, seconds of paw licking: A (<70 seconds of paw licking)
  Late Phase, seconds of paw licking: C (>165 seconds of paw licking)

## Cl.NC12CC(c3nc4cc(C(F)(F)F)ccc4s3)(C1)C2 [Compound 14, 3-(5-(trifluoromethyl)benzo[d]thiazol-2-yl)bicyclo[1.1.1]pentan-1-amine hydrochloride]
[3]
  Early Phase, seconds of paw licking: A (<70 seconds of paw licking)
  Late Phase, seconds of paw licking: C (>165 seconds of paw licking)

## Cl.NC12CC(c3nc4cc(C(F)(F)F)ccc4o3)(C1)C2 [Compound 15, 3-(5-(Trifluoromethyl)benzo[d]oxazol-2-yl)bicyclo[1.1.1]pentan-1-amine hydrochloride]
[3]
  Early Phase, seconds of paw licking: A (<70 seconds of paw licking)
  Late Phase, seconds of paw licking: C (>165 seconds of paw licking)

## Cl.NC12CC(c3nc4cc(Cl)ccc4o3)(C1)C2 [Compound 16, 3-(5-chlorobenzo[d]oxazol-2-yl)bicyclo[1.1.1]pentan-1-amine hydrochloride]
[3]
  Early Phase, seconds of paw licking: A (<70 seconds of paw licking)
  Late Phase, seconds of paw licking: C (>165 seconds of paw licking)

## Cl.NC12CC(c3nc4cc(F)ccc4[nH]3)(C1)C2 [Compound 17, 3-(5-fluoro-1H-benzo[d]imidazol-2-yl)bicyclo[1.1.1]pentan-1-amine hydrochloride]
[3]
  Early Phase, seconds of paw licking: A (<70 seconds of paw licking)
  Late Phase, seconds of paw licking: C (>165 seconds of paw licking)

## COc1cccc(C23CC(N)(C2)C3)c1.Cl [Compound 18, 3-(3-Methoxyphenyl)bicyclo[1.1.1]pentan-1-amine hydrochloride]
[3]
  Early Phase, seconds of paw licking: A (<70 seconds of paw licking)
  Late Phase, seconds of paw licking: B (>70 and <165 seconds of paw licking)

## CC(F)(F)C12CC(N)(C1)C2.Cl [Compound 19, 3-(1,1-Difluoroethyl)bicyclo[1.1.1]pentan-1-amine hydrochloride]
[3]
  Early Phase, seconds of paw licking: A (<70 seconds of paw licking)
  Late Phase, seconds of paw licking: B (>70 and <165 seconds of paw licking)

## CC(C)C(F)(F)C12CC(N)(C1)C2.Cl [Compound 20, 3-(1,1-Difluoro-2-methylpropyl)bicyclo[1.1.1]pentan-1-amine hydrochloride]
[3]
  Early Phase, seconds of paw licking: A (<70 seconds of paw licking)
  Late Phase, seconds of paw licking: C (>165 seconds of paw licking)

## CC(C)=C(F)C12CC(N)(C1)C2.Cl [Compound 21, 3-(1-fluoro-2-methylprop-1-en-1-yl)bicyclo[1.1.1]pentan-1-amine hydrochloride]
[3]
  Early Phase, seconds of paw licking: A (<70 seconds of paw licking)
  Late Phase, seconds of paw licking: C (>165 seconds of paw licking)

## Cl.NC12CC(c3ccccc3)(C1)C2 [Compound 22, 3-Phenylbicyclo[1.1.1]pentan-1-amine hydrochloride]
[3]
  Early Phase, seconds of paw licking: A (<70 seconds of paw licking)
  Late Phase, seconds of paw licking: B (>70 and <165 seconds of paw licking)
